ChEMBL document CHEMBL5120831, “Pep5-based antitumor peptides containing multifunctional fragments with enhanced activity and synergistic effect” (Eur J Med Chem, 2022)
The source made the active and inactive calls. The rule behind the calls is not given here. Numbered stars: 1 amine (or outer) side, 2 acyl side, 3 side chain; on linkers, the order of the positions; unused ones are H or OH. Bridge positions count the residues as written; N and C are the ends. Square brackets hold non-standard residues; d marks the D form. Peptide text beside a SMILES is read from it. I, II: the chains in the order shown. ξ: configuration not given here. X1 = O=C([C@H](Cc1c[nH]c2ccccc12)N(c1ccc([N+](=O)[O-])c2nonc12)[*:1])[*:2]; ξN = NC(=O)CC(N)C(=O)O

How the values were obtained:
[1] = system: A549; assay: Cytotoxicity against human A549 cells assessed as cell viability at 30 uM measured after 24 hrs by CCK-8 assay relative to control; type: functional; details: read-out: Activity
[2] = system: HepG2; assay: Cytotoxicity against human HepG2 cells assessed as reduction in cell viability measured after 24 hrs by CCK-8 assay; type: functional, cell-based; details: for IC50: HepG2, 24 h
[3] = Cytotoxicity against human BEAS-2B cells assessed as reduction in cell viability measured after 24 hrs by CCK-8 assay; type: toxicity, cell-based
[4] = system: A549; assay: Induction of apoptosis in human A549 cells assessed as viable cells at 15 uM measured after 24 hrs by Annexin V-FITC/propidium iodide staining based flow cytometry relative to control; type: functional; details: read-out: Activity
[5] = Cytotoxicity against human L02 cells assessed as reduction in cell viability measured after 24 hrs by CCK-8 assay; type: toxicity, cell-based
[6] = system: BEAS-2B; assay: Induction of apoptosis in human BEAS-2B cells assessed as reduction in viable cells at 15 uM measured after 24 hrs by Annexin V-FITC/propidium iodide staining based flow cytometry; type: toxicity, cell-based
[7] = system: HepG2; assay: Cytotoxicity against human HepG2 cells assessed as cell viability at 30 uM measured after 24 hrs by CCK-8 assay relative to control; type: functional; details: read-out: Activity
[8] = system: L02; assay: Induction of apoptosis in human L02 cells assessed as reduction in viable cells at 15 uM measured after 24 hrs by Annexin V-FITC/propidium iodide staining based flow cytometry; type: toxicity, cell-based; details: l02, 24 h
[9] = system: A549; assay: Cytotoxicity against human A549 cells assessed as reduction in cell viability measured after 24 hrs by CCK-8 assay; type: functional, cell-based; details: for IC50: A549, 24 h
[10] = system: HepG2; assay: Induction of apoptosis in human HepG2 cells assessed as viable cells at 15 uM measured after 24 hrs by Annexin V-FITC/propidium iodide staining based flow cytometry relative to control; type: functional; details: read-out: Activity
[11] = system: HepG2; assay: Induction of cell membrane disruption in human HepG2 cells assessed as increase in LDH release at 15 uM measured after 1 hr by LDH releasing reagent based assay
[12] = system: A549; assay: Induction of cell membrane disruption in human A549 cells assessed as increase in LDH release at 15 uM measured after 1 hr by LDH releasing reagent based assay
[13] = system: A549; assay: Induction of apoptosis in human A549 cells assessed as increase in necrotic cells at 15 uM measured after 24 hrs by Annexin V-FITC/propidium iodide staining based flow cytometry; type: functional, cell-based
[14] = system: A549; assay: Induction of apoptosis in human A549 cells assessed as increase in late apoptotic cells at 15 uM measured after 24 hrs by Annexin V-FITC/propidium iodide staining based flow cytometry; type: functional, cell-based
[15] = system: HepG2; assay: Induction of morphological changes in human HepG2 cells assessed as decrease in cell number at 15 uM measured after 24 hrs by high-throughput microscopy; type: functional, cell-based
[16] = system: HepG2; assay: Induction of apoptosis in human HepG2 cells assessed as increase in necrotic cells at 15 uM measured after 24 hrs by Annexin V-FITC/propidium iodide staining based flow cytometry; type: functional, cell-based
[17] = system: HepG2; assay: Induction of morphological changes in human HepG2 cells assessed as appearance of abnormal cell morphology at 15 uM measured after 24 hrs by high-throughput microscopy; type: functional, cell-based
[18] = system: HepG2; assay: Induction of apoptosis in human HepG2 cells assessed as increase in late apoptotic cells at 15 uM measured after 24 hrs by Annexin V-FITC/propidium iodide staining based flow cytometry; type: functional, cell-based
[19] = Drug uptake in human A549 cells at 15 uM measured after 1 hr by Hoechst 33258 staining based flow cyotmetry; type: ADME, cell-based; details: a549, 1 h
[20] = Drug uptake in human HepG2 cells at 15 uM measured after 1 hr by Hoechst 33258 staining based flow cyotmetry; type: ADME, cell-based; details: hepg2, 1 h
[21] = Drug uptake in human A549 cells at 15 uM measured after 1 hr by Hoechst 33258 staining based confocal laser scanning microscopy; type: ADME, cell-based; details: a549, 1 h
[22] = Drug uptake in human HepG2 cells at 15 uM measured after 1 hr by Hoechst 33258 staining based confocal laser scanning microscopy; type: ADME, cell-based; details: hepg2, 1 h
[23] = Drug uptake in human BEAS-2B cells at 15 uM measured after 1 hr by Hoechst 33258 staining based confocal laser scanning microscopy; type: ADME, cell-based
[24] = Drug uptake in human BEAS-2B cells at 15 uM measured after 1 hr by Hoechst 33258 staining based flow cyotmetry; type: ADME, cell-based
[25] = Drug uptake in human L02 cells at 15 uM measured after 1 hr by Hoechst 33258 staining based confocal laser scanning microscopy; type: ADME, cell-based; details: l02, 1 h
[26] = Drug uptake in human L02 cells at 15 uM measured after 1 hr by Hoechst 33258 staining based flow cyotmetry; type: ADME, cell-based; details: l02, 1 h

Compound | IC50 [2] [µM] | IC50 at 24 h [3] [µM] | IC50 at 24 h [5] [µM] | Activity [6] | Activity [8] | IC50 [9] [µM] | Activity [11] | Activity [12] | Activity [13] | Activity [14] | Activity [15] | Activity [16] | Activity [17] | Activity [18] | further results
N=C(N)NCCC[C@H](NC(=O)[C@H](CCCNC(=N)N)NC(=O)[C@H](CCCNC(=N)N)NC(=O)[C@H](CCCNC(=N)N)NC(=O)[C@H](CCCNC(=N)N)NC(=O)[C@H](CCCNC(=N)N)NC(=O)[C@H](CCCNC(=N)N)NC(=O)[C@H](CCCNC(=N)N)NC(=O)[C@@H](N)CCCNC(=N)N)C(=O)O | > 100 | > 100 | > 100 | Non-Toxic | Non-Toxic | > 100 | – | – | – | – | – | – | – | – | viability at 30 µM [1]: > 90%; viability at 15 µM [4]: > 80%; viability at 30 µM [7]: > 90%; viability at 15 µM [10]: > 80%
N=C(N)NCCC[C@H](NC(=O)[C@H](CCCNC(=N)N)NC(=O)[C@H](CCCNC(=N)N)NC(=O)[C@H](CCC(N)=O)NC(=O)[C@H](CCCNC(=N)N)NC(=O)[C@H](CCCNC(=N)N)NC(=O)[C@H](CCCCN)NC(=O)[C@H](CCCCN)NC(=O)[C@H](CCCNC(=N)N)NC(=O)CNC(=O)[C@@H](N)Cc1ccc(O)cc1)C(=O)O | > 100 | > 100 | > 100 | Non-Toxic | Non-Toxic | > 100 | – | – | – | – | – | – | – | – | viability at 30 µM [1]: > 90%; viability at 15 µM [4]: > 80%; viability at 30 µM [7]: > 90%; viability at 15 µM [10]: > 80%
CC(C)C[C@H](NC(=O)[C@H](CCCCN)NC(=O)CNC(=O)[C@H](CC(C)C)NC(=O)[C@@H](NC(=O)[C@@H](NC(=O)[C@H](CC(C)C)NC(=O)[C@H](CCC(=O)O)NC(=O)[C@@H](N)Cc1c[nH]c2ccccc12)C(C)C)C(C)C)C(=O)O (H-WELVVLGKL-OH) | – | – | – | Non-Toxic | Non-Toxic | 90 | – | – | – | – | – | – | – | – | –
CC(C)C[C@H](NC(=O)[C@H](CCCCN)NC(=O)CNC(=O)[C@H](CC(C)C)NC(=O)[C@@H](NC(=O)[C@@H](NC(=O)[C@H](CC(C)C)NC(=O)[C@H](CCC(=O)O)NC(=O)[C@@H](N)Cc1c[nH]c2ccccc12)C(C)C)C(C)C)C(=O)N[C@@H](CC(C)C)C(=O)N[C@@H](CC(C)C)C(=O)N[C@@H](Cc1c[nH]cn1)C(=O)N[C@@H](Cc1c[nH]cn1)C(=O)N[C@@H](CC(C)C)C(=O)N[C@@H](CC(C)C)C(=O)N[C@@H](Cc1c[nH]cn1)C(=O)N[C@@H](Cc1c[nH]cn1)C(=O)N[C@@H](CC(C)C)C(=O)N[C@@H](CC(C)C)C(=O)N[C@@H](Cc1c[nH]cn1)C(=O)N[C@@H](Cc1c[nH]cn1)C(=O)N[C@@H](CCCNC(=N)N)C(=O)N[C@@H](CCCNC(=N)N)C(=O)N[C@@H](CCCNC(=N)N)C(=O)N[C@@H](CCCNC(=N)N)C(=O)N[C@@H](CCCNC(=N)N)C(=O)N[C@@H](CCCNC(=N)N)C(=O)N[C@@H](CCCNC(=N)N)C(=O)N[C@@H](CCCNC(=N)N)C(=O)N[C@@H](CCCNC(=N)N)C(=O)O (H-WELVVLGKLLLHHLLHHLLHHRRRRRRRRR-OH) | 10.1 | 18.5 | 15.6 | Non-Toxic | Non-Toxic | 10.5 | Active | Active | Active | Active | Active | Active | Active | Active | –
CC(C)C[C@H](NC(=O)[C@H](CCCCN)NC(=O)CNC(=O)[C@H](CC(C)C)NC(=O)[C@@H](NC(=O)[C@@H](NC(=O)[C@H](CC(C)C)NC(=O)[C@H](CCC(=O)O)NC(=O)[C@@H](N)Cc1c[nH]c2ccccc12)C(C)C)C(C)C)C(=O)N[C@@H](CCCNC(=N)N)C(=O)N[C@@H](CCCNC(=N)N)C(=O)N[C@@H](CCCNC(=N)N)C(=O)N[C@@H](CCCNC(=N)N)C(=O)N[C@@H](CCCNC(=N)N)C(=O)N[C@@H](CCCNC(=N)N)C(=O)N[C@@H](CCCNC(=N)N)C(=O)N[C@@H](CCCNC(=N)N)C(=O)N[C@@H](CCCNC(=N)N)C(=O)O (H-WELVVLGKLRRRRRRRRR-OH) | 14.4 | 22.8 | 21.6 | Non-Toxic | Non-Toxic | 17.3 | Active | Active | Active | Active | Active | Active | Active | Active | Activity ([2]; DDE = dose-dependent effect): Dde; Activity ([9]; DDE = dose-dependent effect): Dde
CC(C)C[C@H](NC(=O)[C@H](CCCCN)NC(=O)CNC(=O)[C@H](CC(C)C)NC(=O)[C@@H](NC(=O)[C@@H](NC(=O)[C@H](CC(C)C)NC(=O)[C@H](CCC(=O)O)NC(=O)[C@H](Cc1c[nH]c2ccccc12)Nc1ccc([N+](=O)[O-])c2nonc12)C(C)C)C(C)C)C(=O)N[C@@H](CC(C)C)C(=O)N[C@@H](CC(C)C)C(=O)N[C@@H](Cc1c[nH]cn1)C(=O)N[C@@H](Cc1c[nH]cn1)C(=O)N[C@@H](CC(C)C)C(=O)N[C@@H](CC(C)C)C(=O)N[C@@H](Cc1c[nH]cn1)C(=O)N[C@@H](Cc1c[nH]cn1)C(=O)N[C@@H](CC(C)C)C(=O)N[C@@H](CC(C)C)C(=O)N[C@@H](Cc1c[nH]cn1)C(=O)N[C@@H](Cc1c[nH]cn1)C(=O)N[C@@H](CCCNC(=N)N)C(=O)N[C@@H](CCCNC(=N)N)C(=O)N[C@@H](CCCNC(=N)N)C(=O)N[C@@H](CCCNC(=N)N)C(=O)N[C@@H](CCCNC(=N)N)C(=O)N[C@@H](CCCNC(=N)N)C(=O)N[C@@H](CCCNC(=N)N)C(=O)N[C@@H](CCCNC(=N)N)C(=O)N[C@@H](CCCNC(=N)N)C(=O)O (H-[X1]ELVVLGKLLLHHLLHHLLHHRRRRRRRRR-OH) | – | – | – | – | – | – | – | – | – | – | – | – | – | – | Drug uptake [19]: Active; Drug uptake [20]: Active; Drug uptake [21]: Active; Drug uptake [22]: Active; Drug uptake [23]: Active; Drug uptake [24]: Active; Drug uptake [25]: Active; Drug uptake [26]: Active
I: H-WELVVLGKLGLRKRLRKFRNKIKEK / II: H-GLRKRLRKFR[ξN]KIKEK-OH (amide I:C-II:4) | 13.2 | 19.8 | 18.4 | Non-Toxic | Non-Toxic | 13.1 | Active | Active | Active | Active | Active | Active | Active | Active | –
